Test results: ChEMBL document CHEMBL1275488, “Extended-spectrum beta-lactamase production is associated with an increase in cell invasion and expression of fimbrial adhesins in Klebsiella pneumoniae” (2008)

What follows are molecules tested on Klebsiella pneumoniae (assay: Antibacterial activity against extended-spectrum beta-lactamase-producing Klebsiella pneumoniae).
Assay type: functional

**Q.** With `CO/N=C(\C(=O)N[C@@H]1C(=O)N2C(C(=O)O)=C(COC(C)=O)CS[C@H]12)c1csc(N)n1` [CEFOTAXIME] as the molecule, how does the MIC read?
**A.** The MIC was under 2 µg/mL.

**Q.** With `CC(C)(O/N=C(\C(=O)N[C@@H]1C(=O)N2C(C(=O)[O-])=C(C[n+]3ccccc3)CS[C@H]12)c1csc(N)n1)C(=O)O` [CEFTAZIDIME] as the molecule, how does the MIC read?
**A.** Its MIC is under 2 µg/mL.

**Q.** For `CO/N=C(\C(=O)N[C@@H]1C(=O)N2C(C(=O)O)=C(CSc3nc(=O)c(O)nn3C)CS[C@H]12)c1csc(N)n1` [CEFTRIAXONE], which MIC is on record?
**A.** Its MIC is under 2 µg/mL.
